Reference: patent US20250282779A1, “SUBSTITUTED 5,6,7,8-TETRAHYDROPYRIDO[2,3-D]PYRIMIDINE-2,4-DIONES FOR TREATING CARDIAC DISEASES” (MYOKARDIA, INC., priority 2018, published 2025)

Tests used:
[1] = Reactive metabolite identification (glutathione adducts); type: in vitro ADME, human; details: for % GSH-adduct (+NADPH, +GSH) relative to parent (−NADPH, −GSH): human liver microsomes, 30 μM, 60 min
Description: Reactive Metabolite Identification
In vitro determination of reactive metabolite formation for small molecules by detection of glutathione adducts formed in vitro in incubations with human liver microsomes fortified with NADPH and glutathione.
Methods: The metabolism of small molecules (30 μM) for glutathione adduct formation was assessed in incubations (200 μL volume, […], 60 min incubation time) with liver microsomes from human (1 mg/mL protein) conducted in potassium phosphate buffer (0.1 M, pH 7.4) for 1 h at 37° C. in a 96-well plate (2 mL well volume) and were performed in the absence of NADPH (used as a negative control) and in the presence of NADPH (1 mM) and glutathione (GSH, 10 mM). Incubations with liver microsomes were performed in a shaking water bath incubator with slow horizontal shaking (30 rpm). To obtain 30 μM incubation concentration of a compound, a 3 mM substrate stock solution in DMSO was used. Final incubation mixtures contained 148 μL of potassium phosphate buffer, 10 μL of liver microsome solution (20 mg protein/mL), 2 μL of the 3 mM substrate solution and where incubations were initiated by the addition of 40 μL of NADPH solution (5 mM dissolved in potassium phosphate buffer). Non-NADPH containing incubations were supplemented with 40 μL of potassium phosphate buffer. Post-incubation, reactions were terminated by adding an equal volume of acetonitrile containing 20 nM carbamazepine internal standard and 3% formic acid. Quenched samples then were centrifuged (4,600 rpm, 4° C., 10-min) after which the supernatants were transferred to a 96-well LC-MS sample analysis plate and diluted with one volume equivalent of HPLC-grade water, and then heat sealed with aluminum foil prior to analysis by liquid chromatography/mass spectrometry (LC-MS/MS).
Analyte identification: The LC-MS/MS detection (with in-line UV detection at 280 nm) of test compounds and potential GSH-adducts was focused on extracting selected ion chromatographic profiles using the protonated molecular ion MH^+ m/z for parent to 4 decimal places, and corresponding protonated molecular ions of predicted GSH-adduct metabolites (m/z MH^+ parent+305.0681 amu) using Xcalibur software (version 2.1.0, Thermo Fisher Scientific, Waltham, MA). Relative GSH-adduct abundance in vitro in liver microsome extracts was assessed using the LC/UV absorbance at 280 nm peak area ratio obtained by using Xcalibur software (version 2.1.0) between the detected GSH-adducts from NADPH- and GSH-fortified incubation extracts and the corresponding LC/UV peak area of the parent compound from minus NADPH containing incubation extracts. The extent of GSH-adduct formation was determined by LC-MS/MS analysis with in-line LC-UV detection at 280 nm by dividing the glutathione-adduct LC/UV peak area by the LC/UV peak area of the corresponding parent HCM-1 NG analog determined from analysis of control (-NAPDH, -GSH) incubations extracts.
Materials: Pooled male human (HLM, 50 donors) liver microsomes were obtained from Bioreclamation IVT (Baltimore, MD). Glutathione (GSH) and NADPH were purchased from Sigma Chemical Co. (St. Louis, MO). All solvents used for liquid chromatography-tandem mass spectrometry (LC-MS/MS) analyses were of chromatographic grade.
LC-MS Conditions: Extracts from incubations with liver microsomes and hepatocytes were characterized by LC-MS and LC-MS/MS on a Thermo Electron LTQ Orbitrap XL mass spectrometer coupled with a Dionex UltiMate 3000 UHPLC containing in-line diode array detection and an OAS-3300TXRS Autosampler (40 μL injection volume). Electrospray ionization (ESI) was employed in the positive ion mode with the needle potential held at 5.01 kV, a sheath flow rate of 35.02, aux flow rate of 9.99, a current of 2.6 uA, a capillary temperature of 325° C., and a capillary voltage of 15.99. Vacuum conditions used were an ion gauge pressure used was 2.33×10^−5 Torr and a convection gauge pressure of 0.90 Torr. […]

rabbit skeletal myosin = test: Myosin inhibition assay (rbskMF pCa 6 IC50); type: biochemical; details: cardiac vs rabbit skeletal myofibrils
Text: Myosin inhibition assay (rbskMF pCa 6 IC50 (μM))
Inhibition of the enzymatic activity of rabbit skeletal myosin associated with the release of ADP (adenosine diphosphate) at the calcium concentrate that achieves a 50% activation of the rabbit skeletal myofibril system. The procedure was the same as that of bovin cardiac myosin inhibition assay (bcMF pCa 6 IC50 (μM)) by replacing bovine cardiac myofibril with rabbit skeletal myofibril.

Structure (SMILES)	% GSH-adduct (+NADPH, +GSH) relative to parent (−NADPH, −GSH) [1]	Glutathione Adduct Detection in Human Liver Microsome Incubations (single measurement) ([1]; single measurement)	Glutathione Adduct Detection in Human Liver Microsome Incubations, Average (triple measurements) ([1]; triple measurements)	Cardiac selectivity ratio vs rbskMF pCa 6 IC50 (rabbit skeletal myosin)
Cc1ccc(F)c([C@@H]2Nc3[nH]c(=O)n(C4CCOCC4)c(=O)c3C[C@@H]2F)c1 [Compound 3, (6S,7S)-6-fluoro-7-(2-fluoro-5-methylphenyl)-3-(tetrahydro-2H-pyran-4-yl)-5,6,7,8-tetrahydropyrido[2,3-d]pyrimidine-2, 4 (1H, 3H)-dione]	Not Detected	Not Detected	Not Detected	4.51
O=c1[nH]c2c(c(=O)n1C1CCOCC1)CC(F)(F)[C@H](c1cccc(F)c1)N2 [Compound C-1, (S)-6,6-difluoro-7-(3-fluorophenyl)-3-(tetrahydro-2H-pyran-4-yl)-5,6,7,8-tetrahydropyrido[2,3-d]pyrimidine-2,4(1H,3H)-dione, reference compound]	Not Detected	–	–	5.48
